Source: patent publication US20260256790A1, “DEBIO-0123 IN COMBINATION WITH TEMOZOLOMIDE AND RADIOTHERAPY FOR USE IN TREATING GLIOMA” (Debiopharm International S.A., priority 2023, published 2026)
Several values for one entry are separate records, joined by “and”; a condition that tells them apart may be missing. Equal values may be shown once. Read-outs that look alike come from different tables or passages of the source.

Experiments:
[1] = Plasma and brain concentrations (PK) in healthy mice after oral dosing; assay type: in vivo, Nu/Nu mice; details: for Kp at 72 h: brain/plasma
Procedure: Healthy male Nu/Nu mice were treated orally with either (i) a single dose of 30 mg/kg Compound of formula (I) ([…], 3 mice per time-point), (ii) 30 mg/kg of Compound of formula (I) given once a day for four consecutive days (27 mice in total, 3 mice per time-point), (iii) 30 mg/kg of AZD-1775 (adavosertib, purchased from Combi-Blocks, San Diego, USA) given twice a day for three consecutive days and once on day four (27 mice in total, 3 mice per time-point), (iv) or 80 mg/kg of Zn-c3 (purchased from EOS Med Chem, Jina City, China) given once a day for four consecutive days (27 mice in total, 3 mice per time-point). The doses used for each compound have previously been reported as active dose levels. Compound of formula (I) was formulated as a suspension in 0.5% methylcellulose with 1% Tween 80 and administered at a concentration of 3.0 mg/mL. […] The dosing volume of all formulations was 10 mL/kg. At designated time-points the mice were euthanized by carbon dioxide inhalation, blood samples were collected by cardiac puncture into K2EDTA containing tubes. The tubes were inverted several times, placed on ice and centrifuged within 30 min of collection (4° C. for 5 min at 6000 rpm) to obtain plasma. The plasma samples were snap frozen in dry ice and stored at −80° C. until analysis. The brain was collected, weighed and snap frozen in dry ice until further analysis. To obtain brain homogenates, firstly water was added to each brain (brain weight:water volume=1:4) then the brain was homogenized with a H-speed dispersator (time procedure: homogenizing for 10 s and interval of 10 s per time, total 3-5 times; cleaning procedure for dispersator: Water-Methanol-Ethanol-Water, 10 s each). The brain homogenate samples were transferred to individual tubes and stored at −80° C. prior to analysis. The mouse plasma and brain samples were analysed as follows. For each analytical batch of plasma and brain samples, the standard and quality control (QC) samples were freshly prepared in blank male Nu/Nu mouse plasma (with K2EDTA anticoagulant) and brain homogenate. To an aliquot of each standard, QC, control blank and study samples, internal standard (^13CD6-Compound of formula (I) for Compound of formula (I), terfenadine for AZD-1775 and Zn-c3) in methanol/acetonitrile (1:1, v/v) was added. The samples were mixed for 1 minute and centrifuged at 4000 rpm at 4° C. for 15 minutes. Supernatants were transferred and diluted in MeOH/water (1:1, v/v, with 0.1% FA) prior to LC-MS/MS injection. Chromatographic separation was achieved on an Shimadzu LC-20AD using a Kinetex 2.6μ C18 100A column (50 mm*3.00 mm) for Compound of formula (I) and AZD-1775 samples and a ACE 5 C4 column (50 mm*2.1 mm) for Zn-c3 samples with gradient elution using the following conditions: flow rate: 0.7 mL/min; run time: 3.0 min; mobile phase: A: 5 mM NH4OAc (0.1% FA), B: Acetonitrile (0.1% FA). Detection was accomplished with an AB Sciex 5500 utilizing electrospray MS/MS in positive ion multiple reaction monitoring mode (MRM). The MRM channels were 511.29/98 for Compound of formula (I), 501.47/442.20 for AZD-1775 and 527.36/468.10 for Zn-c3. The MRM channels of internal standard were 518.17/102.10 (^13CD6-Compound of formula (I)) for Compound of formula (I), 472.40/436.40 (terfenadine) for AZD-1775 and Zn-c3. The measured plasma and brain concentrations at each time-point, the nominal sample collection time, and intended dosages were used for pharmacokinetic analysis. The PK parameters of all study compounds were determined by non-compartmental analysis using WinNonlin Version 8.0 (Pharsight).

[2] = Drug concentration in monkey brain and plasma after daily oral administration for 91 days; assay type: in vivo, cynomolgus monkeys; details: 10 mg/kg oral once a day for 91 days
Procedure: Compound of formula (I) was orally given to 3 female cynomolgus monkeys by gavage once a day for 91 days. The volume of administration was 5 mL/kg, and the vehicle was an aqueous solution of 0.5% (w/v) methylcellulose (cps 400) and 1% (w/v) Tween 80. The Compound of formula (I) dose was 10 mg/kg; this dose level was assessed in this study to be the […] no adverse effect level (NOAEL) based on general toxicology evaluation. The animals were necropsied 24 hours after the last dose after an overnight period without food. A sample from brain tissue (left forebrain) was collected from each animal, snap frozen in liquid nitrogen. and stored frozen at <−50° C. Blood samples were taken from the femoral vein into tubes containing K2EDTA, fully inverted approximately 10 times, and placed on crushed wet ice until centrifugation at 2300 g for 10 minutes at approximately 4° C. The resultant plasma was separated, transferred into polypropylene tubes, and frozen at <−50° C. Tissue and plasma samples were transported frozen on dry ice to the respective sites of analysis.
The monkey plasma samples were analyzed for their contents in Compound of formula (I) and N^32-desmethyl-Compound of formula (I) as follows. The plasma samples were fortified in human K2-EDTA plasma (1:9 monkey:human volume ratio) prior to extraction. All solution preparations and dilutions were conducted under sodium vapor light and in “low-binding” quality polypropylene tubes and deep-well plates. The analytes and internal standards (^13CD6-Compound of formula (I) and D7-N^32-desmethyl-Compound of formula (I)) were extracted by protein precipitation with 5M aqueous urea (40 μL for 50 μL plasma), and then analyzed by LC-MS/MS. Chromatographic separation was achieved on an Synergi Polar-RP, 80A, 4 μm 75×2.00 mm column (Phenomenex) with gradient elution using a mixture of 0.1% formic acid in water as eluent A and 0.1% formic acid in acetonitrile as eluent B (5% B from 0 to 0.50 min, 42% B at 4.5 min, 95% B from 4.60 min to 5.50 min, 5% B at 5.60 min, 100% B at 5.70 min, 5% B at 6.40 min, 100% B at 6.50 min, 5% B at 7.00 min; 800 μl/min, 70° C.). Detection was accomplished with a AB Sciex 6500+ mass spectrometer utilizing electrospray MS/MS in positive ion multiple reaction monitoring mode (MRM). The lower limits of quantification for Compound of formula (I) and N^32-desmethyl-Compound of formula (I) were 5.00 ng/mL and 2.50 ng/mL, respectively.
The monkey brain tissue samples were analyzed for their contents in Compound of formula (I) and N^32-desmethyl-Compound of formula (I) as follows. Tissue samples were homogenized in human plasma (1 mg tissue for 10 μL plasma) at +4° C. using a Precelly Evolution system. The analytes (Compound of formula (I) and N^32-desmethyl-Compound of formula (I)) were extracted by protein precipitation with methanol/acetonitrile (9:1, v:v) containing the internal standards (^13CD6-Compound of formula (I) and D7-N^32-desmethyl-Compound of formula (I)) and then analyzed by UHPLC-MS/MS. Chromatographic separation was achieved on a HSS T3 1.8 μm, 2.1×100 mme column (Waters) with gradient elution using a mixture of 0.1% formic acid in water as eluent A, and 0.1% formic acid in acetonitrile as eluent B (20% B from 0 to 0.50 min, 90% B from 1.80 min to 2.30 min, 20% B at 2.60 min; 0.6 mL/min, room temperature). Detection was accomplished with Xevo TQ-S mass spectrometer (Waters) utilizing electrospray MS/MS in positive ion multiple reaction monitoring mode (MRM). The lower limits of quantification for Compound of formula (I) and N^32-desmethyl-Compound of formula (I) were 55.00 ng/g tissue and 22.00 ng/g tissue, respectively.

[3] = CSF and matching plasma concentrations in glioma patients (clinical trial Arms A and B); assay type: in vivo, human
Procedure: In the clinical trial described in Example 9, cerebrospinal fluid (CSF) stabilized with formic acid 0.5% and matching plasma samples collected on K2 EDTA were drawn from 3 patients of Arm A on day 11 of cycle 1 (i.e. 2 patients at 150 mg and 1 patient at 200 mg of Study drug) and 1 patient of Arm B on Week 3 day 1 (i.e. Day 15 after daily doses of Study drug at 90 mg).
Study drug (parent, active moiety) and its active metabolite N^32-desmethyl-Study drug were measured using LC-MS/MS methods. Results were provided in ng per mL of plasma or CSF, and then converted to nmol/L using the molecular weights of the Study drug (511.45 g/mol) and N^32-desmethyl-Study drug (497.42 g/mol).
(§1) Thus, the unbound (or free fraction) of the Study Drug and the N^32-desmethyl-Study drug are calculated.
In CSF, the total protein concentration varies between 0.2% and 0.5% of the total protein concentration of blood (H. Reiber, Clinica Chimica Acta, 2001; Schilde L M et al., PLoS ONE, 2018), therefore the concentration measured in CSF essentially corresponds to the free fraction of the compounds.
For each of the 4 patients, the ratio CSF/plasma of a given compound (Study drug parent or metabolite) was calculated using the CSF concentration of said compound (in nmol/L) and the unbound or free fraction of said compound in plasma (in nmol/L).

plasma proteins = assay: Binding to plasma proteins; assay type: in vitro ADME
Procedure: as §1

[4] = 30 mg/kg, bid for 3 days and once on day 4, oral, day 4
[5] = Arm A, 150 mg, day 11 of cycle 1, listed as N^32-desmethyl-Study drug
[6] = Arm A, 200 mg, day 11 of cycle 1
[7] = Arm B, 90 mg daily, Week 3 day 1 (Day 15)

C=CCn1c(=O)c2cnc(Nc3ccc(N4CCN(C)CC4)cc3)nc2n1-c1cccc(C(C)(C)O)n1 [AZD-1775, adavosertib, reference compound]
AUCInf, brain [1, 4]: 99.7 ng·h/g | AUCLast, brain [1, 4]: 94.5 ng·h/g | Cmax, brain [1, 4]: 53.9 ng/g | Kp at 72 h ([1]; male, Nu/Nu, mouse, po, 30 mg/kg, bid for 3 days and once on day 4, oral, day 4, read-out: Brain to plasma ratio based on AUCInf): 0.051 | Kp at 72 h ([1]; male, Nu/Nu, mouse, po, 30 mg/kg, bid for 3 days and once on day 4, oral, day 4, read-out: Brain to plasma ratio based on AUCLast): 0.048 | Kp at 72 h ([1]; male, Nu/Nu, mouse, po, 30 mg/kg, bid for 3 days and once on day 4, oral, day 4, read-out: Brain to plasma ratio based on Cmax): 0.043 | Cmax ([1]; male, Nu/Nu, mouse, plasma, po, 30 mg/kg, bid for 3 days and once on day 4, oral, day 4): 1260 ng/mL | AUC(0-inf) ([1]; male, Nu/Nu, mouse, plasma, po, 30 mg/kg, bid for 3 days and once on day 4, oral, day 4, read-out: AUCInf, plasma): 1960 ng·h/mL | AUC(0-t) ([1]; male, Nu/Nu, mouse, plasma, po, 30 mg/kg, bid for 3 days and once on day 4, oral, day 4, read-out: AUCLast, plasma): 1950 ng·h/mL

Cc1cc(Nc2ncc3c(n2)N(C)CN(c2c(Cl)cccc2Cl)C3=O)ccc1C1CCNCC1 [N^32-Desmethyl-Compound of formula (I)]
Mean brain:plasma ratio (±SD), at 24 h post last dose (n = 3) [2]: 0.73 ± 0.21 | Brain:plasma concentration ratio, at 24 h post last dose ([2]; individual animals): 0.49 and 0.81 and 0.88 | Plasma concentration at 24 h post last dose ([2]; individual animals): 531 ng/mL and 233 ng/mL and 365 ng/mL | Brain concentration at 24 h post last dose ([2]; left forebrain, individual animals): 258 ng/g tissue and 188 ng/g tissue and 323 ng/g tissue | CSF/plasma ratio ([3]; 4 patients, Arms A and B): about 5% | CSF concentration [3, 5]: 0.23 nmol/L and 0.26 nmol/L | CSF to “unbound plasma” ratio [3, 5]: 0.06 and 0.05 | Raw data concentration in CSF [3, 5]: 0.114 ng/mL and 0.128 ng/mL | Raw data concentration in plasma [3, 5]: 17.7 ng/mL and 15.6 ng/mL | Unbound plasma concentration [3, 5]: 4.59 nmol/L and 4.05 nmol/L | CSF concentration [3, 6]: 0.31 nmol/L | CSF to “unbound plasma” ratio [3, 6]: 0.05 | Raw data concentration in CSF [3, 6]: 0.154 ng/mL | Raw data concentration in plasma [3, 6]: 23.2 ng/mL | Unbound plasma concentration [3, 6]: 6.02 nmol/L | CSF concentration [3, 7]: 0.61 nmol/L | CSF to “unbound plasma” ratio [3, 7]: 0.05 | Raw data concentration in CSF [3, 7]: 0.302 ng/mL | Raw data concentration in plasma [3, 7]: 42.8 ng/mL | Unbound plasma concentration [3, 7]: 11.10 nmol/L | Active metabolite in plasma as share of Study drug parent ([3]; patient plasma): about 10% | Bound to plasma proteins (plasma proteins): 87.1%

C=CCn1c(=O)c2cnc(Nc3ccc(N4CCN(C)CC4)cc3)nc2n1-c1ccc2c(n1)[C@@](O)(CC)CC2 [Zn-c3, reference compound]
AUCInf, brain ([1]; mouse, in vivo, po, 80 mg/kg): 878 ng·h/g | AUCInf, plasma ([1]; mouse, in vivo, po, 80 mg/kg): 14180 ng·h/mL | AUCLast, brain ([1]; mouse, in vivo, po, 80 mg/kg): 396 ng·h/g | AUCLast, plasma ([1]; mouse, in vivo, po, 80 mg/kg): 14179 ng·h/mL | Brain to plasma ratio based on AUCInf ([1]; mouse, in vivo, po, 80 mg/kg): 0.062 | Brain to plasma ratio based on AUCLast ([1]; mouse, in vivo, po, 80 mg/kg): 0.028 | Brain to plasma ratio based on Cmax ([1]; mouse, in vivo, po, 80 mg/kg): 0.035 | Cmax, brain ([1]; mouse, in vivo, po, 80 mg/kg): 97.2 ng/g | Cmax, plasma ([1]; mouse, in vivo, po, 80 mg/kg): 2773 ng/mL
